Active and inactive are the calls of the source. The calls are words filed in the database; no cut-off is given here.
Legend:
[1] = tested on: NCI-H2228; assay: Antiproliferative activity against human NCI-H2228 cell spheroids assessed as reduction in cell growth measured after 5 days by celltiter-glo luminescent cell viability assay; assay type: functional, cell-based; details: NCI-H2228, 120 h
[2] = biological target: T1, ALK tyrosine kinase receptor (Homo sapiens, UniProt Q9UM73); assay: Inhibition of ALK phosphorylation in human NCI-H2228 cells assessed as phosphorylated ALK level at 1000 nmol/L measured after 4 hrs by Western blot analysis relative to control; assay type: cell-based; set-up: scale not given: the % may be the effect or the level left
T1 sequence (Q9UM73 19-1620 limits assumed): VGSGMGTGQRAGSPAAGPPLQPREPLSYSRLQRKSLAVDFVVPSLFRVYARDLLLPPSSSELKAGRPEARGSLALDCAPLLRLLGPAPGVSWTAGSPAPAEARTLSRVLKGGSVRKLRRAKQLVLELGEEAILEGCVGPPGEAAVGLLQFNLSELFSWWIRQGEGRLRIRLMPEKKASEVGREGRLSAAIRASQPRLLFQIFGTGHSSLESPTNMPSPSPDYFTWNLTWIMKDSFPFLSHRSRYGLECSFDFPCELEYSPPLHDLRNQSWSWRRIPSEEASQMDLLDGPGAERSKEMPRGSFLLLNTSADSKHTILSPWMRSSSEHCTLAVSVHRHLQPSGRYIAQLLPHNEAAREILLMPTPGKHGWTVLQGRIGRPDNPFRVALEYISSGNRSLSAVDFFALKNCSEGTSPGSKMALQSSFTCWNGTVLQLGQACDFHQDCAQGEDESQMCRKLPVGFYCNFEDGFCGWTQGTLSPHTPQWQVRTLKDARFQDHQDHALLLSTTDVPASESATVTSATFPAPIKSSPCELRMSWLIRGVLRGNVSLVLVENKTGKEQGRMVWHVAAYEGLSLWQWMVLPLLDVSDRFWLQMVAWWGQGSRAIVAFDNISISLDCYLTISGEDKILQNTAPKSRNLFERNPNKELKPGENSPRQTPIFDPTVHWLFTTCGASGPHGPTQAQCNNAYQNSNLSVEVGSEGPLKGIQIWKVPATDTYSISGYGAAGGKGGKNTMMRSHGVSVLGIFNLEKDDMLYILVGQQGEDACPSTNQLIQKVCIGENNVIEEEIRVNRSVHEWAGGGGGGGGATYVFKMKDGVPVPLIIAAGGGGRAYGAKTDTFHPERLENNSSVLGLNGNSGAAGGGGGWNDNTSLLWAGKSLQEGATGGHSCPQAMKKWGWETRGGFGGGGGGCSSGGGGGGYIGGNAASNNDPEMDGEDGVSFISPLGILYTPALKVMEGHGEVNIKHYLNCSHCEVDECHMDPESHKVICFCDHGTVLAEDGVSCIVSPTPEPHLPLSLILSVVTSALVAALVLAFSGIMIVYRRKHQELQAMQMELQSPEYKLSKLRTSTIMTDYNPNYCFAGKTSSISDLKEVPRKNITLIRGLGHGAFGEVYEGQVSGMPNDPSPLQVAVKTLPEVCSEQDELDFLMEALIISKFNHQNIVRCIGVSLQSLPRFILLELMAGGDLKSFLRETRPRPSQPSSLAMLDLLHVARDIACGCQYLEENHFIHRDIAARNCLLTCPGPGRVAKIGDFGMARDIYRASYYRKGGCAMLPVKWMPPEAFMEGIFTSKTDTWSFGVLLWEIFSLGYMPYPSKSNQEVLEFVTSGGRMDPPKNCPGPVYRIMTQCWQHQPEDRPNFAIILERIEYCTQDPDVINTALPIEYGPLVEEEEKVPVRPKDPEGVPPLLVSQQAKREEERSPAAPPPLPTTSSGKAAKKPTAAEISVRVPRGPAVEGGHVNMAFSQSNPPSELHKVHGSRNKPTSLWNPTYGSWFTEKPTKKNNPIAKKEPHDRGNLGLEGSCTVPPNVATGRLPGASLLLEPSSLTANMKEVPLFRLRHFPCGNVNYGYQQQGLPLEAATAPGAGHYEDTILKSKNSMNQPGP

[3] = biological target: T1, ALK tyrosine kinase receptor; assay: Inhibition of ALK in human NCI-H2228 cells assessed as reduction in AKT phosphorylation by measuring phosphorylated AKT level at 100 nmol/L measured after 4 hrs by Western blot analysis relative to control; assay type: cell-based; set-up: scale not given: the % may be the effect or the level left
[4] = biological target: T1, ALK tyrosine kinase receptor; assay: Inhibition of ALK in human NCI-H2228 cells assessed as reduction in AKT phosphorylation by measuring phosphorylated AKT level at 1000 nmol/L measured after 4 hrs by Western blot analysis relative to control; assay type: cell-based; set-up: scale not given: the % may be the effect or the level left
[5] = biological target: T1, ALK tyrosine kinase receptor; assay: Inhibition of ALK in human NCI-H2228 cells assessed as reduction in ERK phosphorylation by measuring phosphorylated ERK level at 100 nmol/L measured after 4 hrs by Western blot analysis relative to control; assay type: cell-based; set-up: scale not given: the % may be the effect or the level left
[6] = biological target: T1, ALK tyrosine kinase receptor; assay: Inhibition of ALK in human NCI-H2228 cells assessed as reduction in STAT3 phosphorylation by measuring phosphorylated STAT3 level at 1000 nmol/L measured after 4 hrs by Western blot analysis relative to control; assay type: cell-based; set-up: scale not given: the % may be the effect or the level left
[7] = biological target: ALK tyrosine kinase receptor (Homo sapiens, UniProt Q9UM73, R1275Q)
[8] = biological target: Hepatocyte growth factor receptor (Homo sapiens, UniProt P08581); assay: Inhibition of human N-terminal GST-fused MET cytoplasmic domain ([956 to 1390(end) residues) expressed in baculovirus expression system using Srctide as substrate measured after 1 hr by off-chip mobility shift assay relative to control
Sequence of Hepatocyte growth factor receptor (P08581 whole entry, the tested form may be a part): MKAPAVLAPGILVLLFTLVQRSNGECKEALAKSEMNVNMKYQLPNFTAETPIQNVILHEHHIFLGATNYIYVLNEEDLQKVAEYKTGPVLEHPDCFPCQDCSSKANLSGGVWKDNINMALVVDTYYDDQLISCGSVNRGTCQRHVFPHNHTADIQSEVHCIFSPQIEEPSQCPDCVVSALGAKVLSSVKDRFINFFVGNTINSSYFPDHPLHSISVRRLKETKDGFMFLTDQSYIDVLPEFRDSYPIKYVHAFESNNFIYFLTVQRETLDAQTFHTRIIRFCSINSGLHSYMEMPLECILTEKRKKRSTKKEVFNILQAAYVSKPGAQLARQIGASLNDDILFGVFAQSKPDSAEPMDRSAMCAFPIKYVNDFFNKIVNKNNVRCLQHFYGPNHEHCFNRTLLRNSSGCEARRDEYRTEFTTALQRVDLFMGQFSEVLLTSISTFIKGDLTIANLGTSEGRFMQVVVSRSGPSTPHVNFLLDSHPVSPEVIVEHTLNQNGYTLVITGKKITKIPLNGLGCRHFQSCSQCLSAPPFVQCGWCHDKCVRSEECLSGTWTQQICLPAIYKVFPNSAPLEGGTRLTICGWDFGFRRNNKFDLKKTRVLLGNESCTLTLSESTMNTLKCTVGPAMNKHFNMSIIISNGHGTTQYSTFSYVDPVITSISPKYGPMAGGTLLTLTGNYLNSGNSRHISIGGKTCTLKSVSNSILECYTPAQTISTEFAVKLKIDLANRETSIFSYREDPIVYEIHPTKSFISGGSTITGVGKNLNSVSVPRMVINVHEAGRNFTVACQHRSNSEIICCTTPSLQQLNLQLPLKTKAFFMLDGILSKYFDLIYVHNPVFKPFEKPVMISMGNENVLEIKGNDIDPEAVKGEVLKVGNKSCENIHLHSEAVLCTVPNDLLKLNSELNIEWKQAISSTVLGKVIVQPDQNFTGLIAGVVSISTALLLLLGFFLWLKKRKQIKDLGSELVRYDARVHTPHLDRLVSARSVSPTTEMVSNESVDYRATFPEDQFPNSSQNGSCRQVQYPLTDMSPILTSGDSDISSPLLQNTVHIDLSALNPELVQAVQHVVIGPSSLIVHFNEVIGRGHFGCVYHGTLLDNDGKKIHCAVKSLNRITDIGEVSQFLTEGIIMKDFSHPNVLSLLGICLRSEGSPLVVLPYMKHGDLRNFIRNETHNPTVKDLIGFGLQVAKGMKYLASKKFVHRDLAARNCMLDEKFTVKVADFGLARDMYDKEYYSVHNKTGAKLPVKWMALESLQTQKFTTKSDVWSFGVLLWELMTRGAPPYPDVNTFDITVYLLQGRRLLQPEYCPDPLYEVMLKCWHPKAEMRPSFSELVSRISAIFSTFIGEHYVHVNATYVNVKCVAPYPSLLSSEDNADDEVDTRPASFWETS

[9] = In vivo inhibition of ALK autophosphorylation in human NCI-H2228 cell xenografted NOD.CB17-Prkdcscid/J mouse assessed as phosphorylated ALK level at 10 mg/kg, po administered as single dose measured after 4 hrs by immunoblotting method relative to control; assay type: functional; set-up: scale not given: the % may be the effect or the level left
[10] = tested on: NCI-H2228; assay: Antitumor activity against human NCI-H2228 cells xenografted in NOD.CB17-Prkdcscid/J mouse assessed as tumor growth inhibition at 10 mg/kg, po administered once daily for 2 weeks relative to control; assay type: functional; details: NCI-H2228, 336 h, read-out: TGI
[11] = tested on: NCI-H2228; assay: Antitumor activity against human NCI-H2228 cells xenografted in NOD.CB17-Prkdcscid/J mouse assessed as tumor regression at 1 mg/kg, po administered once daily for 2 weeks relative to control; assay type: functional
[12] = Cmax in human NCI-H2228 cell xenografted NOD.CB17-Prkdcscid/J mouse plasma at 1 mg/kg/day for 5 days by HPLC-MS analysis; assay type: ADME, organism-based; details: route po, time 5 day
[13] = Tmax in human NCI-H2228 cell xenografted NOD.CB17-Prkdcscid/J mouse plasma at 1 mg/kg/day for 5 days by HPLC-MS analysis; assay type: ADME, organism-based; details: route po, time 5 day
[14] = AUC (0 to 24 hrs) in human NCI-H2228 cell xenografted NOD.CB17-Prkdcscid/J mouse plasma at 3 mg/kg/day for 5 days by HPLC-MS analysis; assay type: ADME, organism-based; details: route po, time 5 day
[15] = AUC (0 to 24 hrs) in human NCI-H2228 cell xenografted NOD.CB17-Prkdcscid/J mouse tumor at 3 mg/kg/day for 5 days by HPLC-MS analysis; assay type: ADME, organism-based, Neoplasm; details: in vivo, po, 120 h, time 5 day
[16] = Ratio of Cmax in human NCI-H2228 cell xenografted NOD.CB17-Prkdcscid/J mouse tumor to plasma at 1 mg/kg/day for 5 days by HPLC-MS analysis; assay type: ADME, organism-based; details: tumor and plasma, route po, time 5 day
[17] = tested on: Mus musculus; assay: Antitumor activity against hEML4-ALK transgenic C57BL/6J mouse assessed as reduction in tumor mass at 100 mg/kg, po administered daily for 10 days and measured on day 11 by computed tomography scan analysis; assay type: functional, organism-based; details: time 11.0 day
[18] = tested on: NCI-H2228; assay: Potentiation of paclitaxel-induced antitumor activity against human NCI-H2228 cells xenografted in NOD.CB17-Prkdcscid/J mouse assessed as increase in tumor regression at 10 mg/kg, po administered once daily for 5 days; assay type: functional, organism-based; details: time 5.0 day
[19] = Toxicity in human NCI-H2228 cell xenografted NOD.CB17-Prkdcscid/J mouse assessed as change in body weight at 10 mg/kg, po administered once daily for 5 days in presence of paclitaxel; assay type: organism-based; details: in vivo, 120 h, time 5 day
[20] = Toxicity in human NCI-H2228 cell xenografted NOD.CB17-Prkdcscid/J mouse assessed as change in body weight at 10 mg/kg, po administered once daily for 5 days in presence of pemetrexed; assay type: organism-based; details: in vivo, 120 h, time 5 day
[21] = tested on: NCI-H2228; assay: Potentiation of carboplatin-induced antitumor activity against human NCI-H2228 cells xenografted in NOD.CB17-Prkdcscid/J mouse assessed as reduction in tumor volume at 10 mg/kg, po administered once daily for 5 days; assay type: functional, organism-based; details: time 5.0 day
[22] = tested on: NCI-H2228-Luc; assay: Antitumor activity against human NCI-H2228-Luc cells intrahepatically xenografted in NOD.CB17-Prkdcscid/J mouse assessed as reduction in tumor burden by measuring bioluminescence emission at 30 mg/kg, po administered once daily for 3 weeks starting from 14 days post-cell inoculation and measured on day 14 by bioluminescent imaging analysis (reference value: 3.3 x 10^8 photon/sec); assay type: functional; details: time 14 day
[23] = biological target: EML4-ALK (Homo sapiens, UniProt Q9UM73, L1196M); assay type: cell-based, BaF3
Sequence of EML4-ALK (Q9UM73 19-1620 L1196M limits assumed): as the sequence (Q9UM73 19-1620 limits assumed) above, with L1178M counted along it

[24] = Selectivity ratio of IC50 for inhibition of EML4-ALK L1196M mutant (unknown origin) expressed in mouse 3T3 cells assessed as growth inhibition to IC50 for Inhibition of EML4-ALK (unknown origin) expressed in mouse 3T3 cells assessed as growth inhibition; set-up: species or system Homo sapiens; details: condition non-small cell lung carcinoma
[25] = biological target: Tyrosine-protein kinase receptor UFO (Homo sapiens, UniProt P30530)
Sequence of Tyrosine-protein kinase receptor UFO (P30530 whole entry): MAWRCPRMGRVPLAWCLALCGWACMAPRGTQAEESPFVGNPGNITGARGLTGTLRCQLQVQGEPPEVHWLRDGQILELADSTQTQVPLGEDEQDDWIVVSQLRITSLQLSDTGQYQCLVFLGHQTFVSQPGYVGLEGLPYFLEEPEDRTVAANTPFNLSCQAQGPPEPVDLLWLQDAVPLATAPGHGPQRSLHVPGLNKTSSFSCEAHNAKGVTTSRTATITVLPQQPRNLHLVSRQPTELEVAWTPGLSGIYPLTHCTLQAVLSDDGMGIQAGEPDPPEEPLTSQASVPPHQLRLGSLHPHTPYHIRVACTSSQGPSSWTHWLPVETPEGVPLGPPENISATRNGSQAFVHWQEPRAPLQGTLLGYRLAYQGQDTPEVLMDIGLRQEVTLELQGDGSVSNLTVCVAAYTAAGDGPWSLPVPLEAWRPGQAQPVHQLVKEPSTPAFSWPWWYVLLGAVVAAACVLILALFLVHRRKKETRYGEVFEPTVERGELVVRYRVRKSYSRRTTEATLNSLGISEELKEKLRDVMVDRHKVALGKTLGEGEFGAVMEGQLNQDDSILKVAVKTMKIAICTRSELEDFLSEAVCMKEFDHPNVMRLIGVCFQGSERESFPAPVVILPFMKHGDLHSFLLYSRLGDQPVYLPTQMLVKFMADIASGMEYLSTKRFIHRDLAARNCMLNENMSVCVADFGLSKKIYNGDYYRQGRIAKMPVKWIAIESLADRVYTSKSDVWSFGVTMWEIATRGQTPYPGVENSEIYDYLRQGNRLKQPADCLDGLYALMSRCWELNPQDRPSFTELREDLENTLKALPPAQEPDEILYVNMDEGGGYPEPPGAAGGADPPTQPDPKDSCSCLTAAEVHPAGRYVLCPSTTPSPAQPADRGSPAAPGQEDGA

[26] = biological target: Epidermal growth factor receptor (Homo sapiens, UniProt P00533, L858R)
Sequence of Epidermal growth factor receptor (P00533 25-1210 L858R limits assumed): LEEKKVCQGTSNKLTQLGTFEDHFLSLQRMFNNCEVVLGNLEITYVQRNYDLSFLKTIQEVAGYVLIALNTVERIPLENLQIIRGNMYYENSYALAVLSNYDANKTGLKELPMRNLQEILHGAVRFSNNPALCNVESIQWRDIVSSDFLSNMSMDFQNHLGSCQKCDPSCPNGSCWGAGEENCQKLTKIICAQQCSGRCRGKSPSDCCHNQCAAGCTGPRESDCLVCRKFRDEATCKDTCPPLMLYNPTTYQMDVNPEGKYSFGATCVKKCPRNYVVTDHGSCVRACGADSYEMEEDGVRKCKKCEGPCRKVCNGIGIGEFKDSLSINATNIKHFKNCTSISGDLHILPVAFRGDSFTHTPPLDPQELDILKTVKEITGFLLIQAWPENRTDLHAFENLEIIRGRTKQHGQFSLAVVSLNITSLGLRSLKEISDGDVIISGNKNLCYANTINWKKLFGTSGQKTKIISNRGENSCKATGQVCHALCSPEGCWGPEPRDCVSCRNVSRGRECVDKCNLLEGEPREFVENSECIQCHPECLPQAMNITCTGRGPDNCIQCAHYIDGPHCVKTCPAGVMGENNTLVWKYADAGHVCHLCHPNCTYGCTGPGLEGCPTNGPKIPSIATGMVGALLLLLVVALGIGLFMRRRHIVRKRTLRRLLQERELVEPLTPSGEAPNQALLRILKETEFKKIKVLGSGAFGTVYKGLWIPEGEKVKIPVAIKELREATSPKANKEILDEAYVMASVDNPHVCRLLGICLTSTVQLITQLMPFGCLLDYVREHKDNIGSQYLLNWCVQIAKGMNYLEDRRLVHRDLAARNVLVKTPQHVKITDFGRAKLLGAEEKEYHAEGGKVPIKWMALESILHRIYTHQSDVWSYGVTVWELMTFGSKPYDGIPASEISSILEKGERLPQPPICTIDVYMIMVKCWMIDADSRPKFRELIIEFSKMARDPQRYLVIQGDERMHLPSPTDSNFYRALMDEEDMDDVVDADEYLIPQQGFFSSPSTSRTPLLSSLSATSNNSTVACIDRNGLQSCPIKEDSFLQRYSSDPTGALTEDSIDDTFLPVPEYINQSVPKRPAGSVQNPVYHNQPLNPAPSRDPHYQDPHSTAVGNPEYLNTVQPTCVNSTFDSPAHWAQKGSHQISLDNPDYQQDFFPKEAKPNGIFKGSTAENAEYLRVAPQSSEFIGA

[27] = biological target: Ephrin type-A receptor 2 (Homo sapiens, UniProt P29317)
[28] = biological target: Leukocyte tyrosine kinase receptor (Homo sapiens, UniProt P29376)
[29] = biological target: Tyrosine-protein kinase Mer (Homo sapiens, UniProt Q12866)
[30] = biological target: Muscle, skeletal receptor tyrosine-protein kinase (Homo sapiens, UniProt O15146)
[31] = biological target: High affinity nerve growth factor receptor (Homo sapiens, UniProt P04629)
[32] = biological target: Tyrosine-protein kinase Yes (Homo sapiens, UniProt P07947)
[33] = in vivo; details: NOD.CB17-Prkdcscid/J, mouse, tumour, po, 1 mg/kg

## COc1cc(N2CCC(N3CCN(C)CC3)CC2)ccc1Nc1ncnc(Nc2ccccc2S(=O)(=O)C(C)C)n1 [ASP-3026]
[1]
  IC50: 64.8 nM
[2]
  Activity: 9%
[3]
  Activity: 56%
[4]
  Activity: 20%
[5]
  Activity: 54%
[6]
  Activity: 46%
[7]
  IC50: 5.4 nM
[8]
  IC50: > 1000 nM
[9]
  Activity: ~20%
[10]
  inhibition in vivo at 10 mg/kg: > 100%
[11]
  Activity: 0%
[12]
  Cmax: 44.3 ng/mL
[13]
  Tmax: 4 h
[14]
  AUC at 120 h: 1820 ng·h/mL
[15]
  AUC: 34400 ng·h/g
[16]
  Kp at 120 h: 19
[17]
  Activity: Active
[18]
  Activity: Active
[19]
  Activity: Non-Toxic
[20]
  Activity: Non-Toxic
[21]
  Activity: inactive
[22]
  Activity: 4.2 10^6No_unit
[23]
  IC50: 32 nM
[24]
  Ratio IC50: 3.9
[25]
  IC50: > 100 nM
[26]
  IC50: 86 nM
[27]
  IC50: > 1000 nM
[28]
  IC50: 61 nM
[29]
  IC50: > 1000 nM
[30]
  IC50: > 100 nM
[31]
  IC50: > 1000 nM
[32]
  IC50: 31.5 nM
[33]
  Kp at 120 h: 22
